Results from US12239654B2, “Compounds and methods for treating neurological and cardiovascular conditions” (Astrocyte Pharmaceuticals, Inc., priority 2016, dated 2025).
Several values for one entry are separate records, joined by “and”; a condition that tells them apart may be missing. Equal entries are not always repeated. Where two headings read alike, the source gives them in different places.

Tests used:
[1] = Pharmacokinetics of MRS4322 following intravenous administration to neonatal pigs; format: in vivo
Method: Animals. Four-week old female neonatal pigs weighing approximately 7.5 Kg were used for this study, supplied by the Department of Bioengineering, University of Pennsylvania (Philadelphia, PA). Animals were equipped with brain microdialysis probes to obtain brain extracellular fluid samples for drug concentration determinations during the study. All studies were conducted under approved University of Pennsylvania IACUC protocols.
Drug Administration: MRS4322 was solubilized in DMSO and then diluted in saline to prepare dosing solution. A 10 mL volume of dosing solution was administered by intravenous bolus administration to each neonatal pig (n=3).
Tissue Sampling: Blood samples were obtained at 0.25, 0.5, 1, 2, 4 and 6 hours post-dose. Brain extracellular fluid samples were obtained from implanted microdialysis probes at 1, 4 and 6 hours post-dose. Whole blood (1 mL) was obtained at each timepoint and placed in vacutainer tubes containing heparin and immediately centrifuged for preparation of plasma; plasma was stored at −80° C. Brain extracellular and cerebrospinal fluid samples were stored at −80° C. At the time of euthanasia (6 hours post-dose), cerebrospinal fluid samples were obtained and frozen, while brain samples from the cortex and hippocampus were obtained by decapitation, rinsed in ice-cold phosphate-buffered saline and weighed. Brain samples were then immediately flash-frozen in liquid nitrogen and stored at −80° C.
The following table outlines the LC and MS/MS conditions employed:
The calibration ranges for all of the MRS4322 matrice's standard curves were 0.1-1000 ng/mL.
For bioanalysis of brain concentrations of MRS4322, brain samples were homogenized in ice-cold phosphate-buffered saline in a 4× dilution. Aliquots of the resulting diluted brain homogenate were treated with acetonitrile and analyzed by LC-MS/MS.

[2] = In vitro stability of MRS2365 in mouse plasma; format: in vitro ADME
Method: Whole blood was obtained from male CD-1 mice and human volunteers at Seventh Wave Laboratories (Maryland Heights, MO). Plasma and blood samples were prepared using either EDTA (1 mM) or lithium heparin as anticoagulants.
Plasma Stability Determination: MRS2365, enalapril and procaine were solubilized in phosphate-buffered saline, pH 7.4. […] Stability incubations were initiated with the addition of MRS2365 (1 μM final concentration). Initial assessments of stability in EDTA-generated plasma utilized incubation timepoints of 0, 10, 30, 60, 120 and 240 minutes (FIGS. 3 and 4). Subsequent studies comparing EDTA- and heparin-generated plasma utilized incubation timepoints of 0, 1, 2.5, 5, 7.5, 10 and 30 minutes (FIG. 7). Additional plasma stability incubations comparing EDTA- and heparin-generated plasma were performed using timepoints of 0, 5, 10, 20, 30, 45, 60 and 90 seconds (FIG. 8). For metabolite scouting analyses, MRS2365 was incubated in heparinized human plasma at a concentration of 100 μM for 10 or 30 minutes (FIG. 9). In all studies, plasma was immediately placed in microtainer tubes, frozen on dry ice and stored at −80° C. until analysis.
The following table outlines the LC and MS/MS conditions employed (Table 11).
The calibration range for MRS2365 plasma and blood concentration standard curves was 5-5000 ng/mL. […]

[3] = Previous/initial in vivo pharmacokinetic assessments of MRS2365 in mice
[4] = plasma, MRS4322 0.2 mg/kg IV, individual animals, 0.2 mg/kg

## CSc1nc(N)c2ncn([C@H]3[C@H](O)[C@H](O)[C@]4(CO)C[C@H]34)c2n1 [MRS4322]
[1]; Brain Cortex, MRS4322 0.2 mg/kg IV, 6 h, individual subjects, 0.2 mg/kg
  Brain Concentration by Subject: 3.80 ng/mL and 6.15 ng/mL
[1]; Brain Hippocampus, MRS4322 0.2 mg/kg IV, 6 h, individual subjects, 0.2 mg/kg
  Brain Concentration by Subject: 4.56 ng/mL and 5.39 ng/mL
[1]; CSF, MRS4322 0.2 mg/kg IV, 6 h, individual subjects, 0.2 mg/kg
  Cerebro-Spinal Fluid Concentration by Subject: 1.04 ng/mL and 1.75 ng/mL
[1]; MRS4322 0.2 mg/kg IV, 0 h, individual subjects
  Plasma Concentration by Subject: BLQ
[1]; MRS4322 0.2 mg/kg IV, 0 h, mean
  Plasma Concentration Mean: BLQ
[1]; MRS4322 0.2 mg/kg IV, 0.25 h, individual subjects, 0.2 mg/kg
  Plasma Concentration by Subject: 120 ng/mL and 163 ng/mL
[1]; MRS4322 0.2 mg/kg IV, 0.5 h, individual subjects, 0.2 mg/kg
  Plasma Concentration by Subject: 54.1 ng/mL and 98.7 ng/mL
[1]; MRS4322 0.2 mg/kg IV, 1 h, individual subjects, 0.2 mg/kg
  Plasma Concentration by Subject: 51.4 ng/mL and 63.0 ng/mL
[1]; MRS4322 0.2 mg/kg IV, 2 h, individual subjects, 0.2 mg/kg
  Plasma Concentration by Subject: 27.2 ng/mL and 18.7 ng/mL and 46.8 ng/mL
[1]; MRS4322 0.2 mg/kg IV, 4 h, individual subjects, 0.2 mg/kg
  Plasma Concentration by Subject: 21.9 ng/mL and 28.7 ng/mL
[1]; MRS4322 0.2 mg/kg IV, 6 h, individual subjects, 0.2 mg/kg
  Plasma Concentration by Subject: 15.3 ng/mL and 9.08 ng/mL and 20.8 ng/mL
[1]; brain ECF (microdialysis), MRS4322 0.2 mg/kg IV, 1 h, individual subjects, 0.2 mg/kg
  Extracellular Fluid Concentration by Subject: 1.55 ng/mL and 0.641 ng/mL and 1.70 ng/mL
[1]; brain ECF, MRS4322 0.2 mg/kg IV, 4 h, individual subjects, 0.2 mg/kg
  Extracellular Fluid Concentration by Subject: 0.693 ng/mL and 0.579 ng/mL and 1.36 ng/mL
[1]; brain ECF, MRS4322 0.2 mg/kg IV, 6 h, individual subjects, 0.2 mg/kg
  Extracellular Fluid Concentration by Subject: 0.602 ng/mL and 0.459 ng/mL and 1.08 ng/mL
[1]; female, pig, 0.2 mg/kg, IV, 6 hours post-dose, based on mean concentrations in plasma and brain, read-out: brain/plasma ratio of total drug
  Kp at 6 h: ~0.3
[1]; female, pig, brain cortex, iv, 0.2 mg/kg, Brain Cortex, MRS4322 0.2 mg/kg IV, 6 h, individual subjects, read-out: Brain Concentration by Subject
  concentration at 6 h: 5.34 ng/mL
[1]; female, pig, brain cortex, iv, 0.2 mg/kg, Brain Cortex, MRS4322 0.2 mg/kg IV, 6 h, mean, read-out: Brain Concentration Mean
  concentration at 6 h: 5.1 ng/mL
[1]; female, pig, brain extracellular fluid, iv, 0.2 mg/kg, brain ECF, MRS4322 0.2 mg/kg IV, 1 h, mean, read-out: Extracellular Fluid Concentration Mean
  concentration at 1 h: 1.3 ng/mL
[1]; female, pig, brain extracellular fluid, iv, 0.2 mg/kg, brain ECF, MRS4322 0.2 mg/kg IV, 4 h, mean, read-out: Extracellular Fluid Concentration Mean
  concentration at 4 h: 0.941 ng/mL
[1]; female, pig, brain extracellular fluid, iv, 0.2 mg/kg, brain ECF, MRS4322 0.2 mg/kg IV, 6 h, mean, read-out: Extracellular Fluid Concentration Mean
  concentration at 6 h: 0.714 ng/mL
[1]; female, pig, brain hippocampus, iv, 0.2 mg/kg, Brain Hippocampus, MRS4322 0.2 mg/kg IV, 6 h, individual subjects, read-out: Brain Concentration by Subject
  concentration at 6 h: 6.47 ng/mL
[1]; female, pig, brain hippocampus, iv, 0.2 mg/kg, Brain Hippocampus, MRS4322 0.2 mg/kg IV, 6 h, mean, read-out: Brain Concentration Mean
  concentration at 6 h: 5.47 ng/mL
[1]; female, pig, cerebrospinal fluid, iv, 0.2 mg/kg, CSF, MRS4322 0.2 mg/kg IV, 6 h, individual subjects, read-out: Cerebro-Spinal Fluid Concentration by Subject
  concentration at 6 h: 1.37 ng/mL
[1]; female, pig, cerebrospinal fluid, iv, 0.2 mg/kg, CSF, MRS4322 0.2 mg/kg IV, 6 h, mean, read-out: Cerebro-Spinal Fluid Concentration Mean
  concentration at 6 h: 1.39 ng/mL
[1]; female, pig, plasma, MRS4322 0.2 mg/kg IV, mean, read-out: Tmax Mean
  Tmax: 0.25 h
[1]; female, pig, plasma, iv, 0.2 mg/kg, MRS4322 0.2 mg/kg IV, 0.25 h, individual subjects, read-out: Plasma Concentration by Subject
  concentration at 0.25 h: 133 ng/mL
[1]; female, pig, plasma, iv, 0.2 mg/kg, MRS4322 0.2 mg/kg IV, 0.25 h, mean, read-out: Plasma Concentration Mean
  concentration at 0.25 h: 139 ng/mL
[1]; female, pig, plasma, iv, 0.2 mg/kg, MRS4322 0.2 mg/kg IV, 0.5 h, individual subjects, read-out: Plasma Concentration by Subject
  concentration at 0.5 h: 85.3 ng/mL
[1]; female, pig, plasma, iv, 0.2 mg/kg, MRS4322 0.2 mg/kg IV, 0.5 h, mean, read-out: Plasma Concentration Mean
  concentration at 0.5 h: 79.4 ng/mL
[1]; female, pig, plasma, iv, 0.2 mg/kg, MRS4322 0.2 mg/kg IV, 1 h, individual subjects, read-out: Plasma Concentration by Subject
  concentration at 1 h: 58.9 ng/mL
[1]; female, pig, plasma, iv, 0.2 mg/kg, MRS4322 0.2 mg/kg IV, 1 h, mean, read-out: Plasma Concentration Mean
  concentration at 1 h: 57.8 ng/mL
[1]; female, pig, plasma, iv, 0.2 mg/kg, MRS4322 0.2 mg/kg IV, 2 h, mean
  concentration at 2 h: 30.9 ng/mL
[1]; female, pig, plasma, iv, 0.2 mg/kg, MRS4322 0.2 mg/kg IV, 4 h, individual subjects, read-out: Plasma Concentration by Subject
  concentration at 4 h: 23.3 ng/mL
[1]; female, pig, plasma, iv, 0.2 mg/kg, MRS4322 0.2 mg/kg IV, 4 h, mean, read-out: Plasma Concentration Mean
  concentration at 4 h: 24.6 ng/mL
[1]; female, pig, plasma, iv, 0.2 mg/kg, MRS4322 0.2 mg/kg IV, 6 h, mean, read-out: Plasma Concentration Mean
  concentration at 6 h: 15.1 ng/mL
[1]; female, pig, plasma, iv, 0.2 mg/kg, MRS4322 0.2 mg/kg IV, mean
  half-life: 3.42 h
[1]; female, pig, plasma, iv, 0.2 mg/kg, plasma, MRS4322 0.2 mg/kg IV, individual animals, read-out: AUCINF
  AUC(0-inf): 344 ng·h/mL
[1]; female, pig, plasma, iv, 0.2 mg/kg, plasma, MRS4322 0.2 mg/kg IV, individual animals, read-out: AUClast
  AUC(0-t): 238 ng·h/mL
[1]; female, pig, plasma, iv, 0.2 mg/kg, plasma, MRS4322 0.2 mg/kg IV, individual animals, read-out: C0
  C0: 207 ng/mL
[1]; female, pig, plasma, iv, 0.2 mg/kg, plasma, MRS4322 0.2 mg/kg IV, individual animals, read-out: Cl
  clearance: 9.68 mL/min/kg
[1]; female, pig, plasma, iv, 0.2 mg/kg, plasma, MRS4322 0.2 mg/kg IV, individual animals, read-out: Cmax
  Cmax: 133 ng/mL
[1]; female, pig, plasma, iv, 0.2 mg/kg, plasma, MRS4322 0.2 mg/kg IV, individual animals, read-out: Vz
  Vd: 4.04 L/kg
[1]; female, pig, plasma, iv, 0.2 mg/kg, plasma, MRS4322 0.2 mg/kg IV, mean, read-out: AUCINF Mean
  AUC(0-inf): 326 ng·h/mL
[1]; female, pig, plasma, iv, 0.2 mg/kg, plasma, MRS4322 0.2 mg/kg IV, mean, read-out: AUClast Mean
  AUC(0-t): 249 ng·h/mL
[1]; female, pig, plasma, iv, 0.2 mg/kg, plasma, MRS4322 0.2 mg/kg IV, mean, read-out: C0 Mean
  C0: 248 ng/mL
[1]; female, pig, plasma, iv, 0.2 mg/kg, plasma, MRS4322 0.2 mg/kg IV, mean, read-out: Cl Mean
  clearance: 10.8 mL/min/kg
[1]; female, pig, plasma, iv, 0.2 mg/kg, plasma, MRS4322 0.2 mg/kg IV, mean, read-out: Cmax Mean
  Cmax: 139 ng/mL
[1]; female, pig, plasma, iv, 0.2 mg/kg, plasma, MRS4322 0.2 mg/kg IV, mean, read-out: Vz Mean
  Vd: 3.05 L/kg
[1]; plasma, MRS4322 0.2 mg/kg IV, individual animals
  Tmax: 0.25 h
[1]; [4]
  AUCINF: 233 ng·h/mL and 401 ng·h/mL
  AUClast: 203 ng·h/mL and 307 ng·h/mL
  C0: 286 ng/mL and 289 ng/mL
  Cl: 14.3 mL/min/kg and 8.31 mL/min/kg
  Cmax: 120 ng/mL and 163 ng/mL
  Half Life: 4.82 h and 2.31 h and 3.13 h
  Vz: 2.86 L/kg and 2.25 L/kg

## CSc1nc(N)c2ncn([C@H]3[C@H](O)[C@H](O)[C@]4(COP(=O)(O)OP(=O)(O)O)C[C@H]34)c2n1 [MRS2365]
[2]; heparin-treated mouse plasma, 0-90 seconds, even at 0 and 5 seconds
  MRS2365 concentrations in heparin-treated plasma: extremely low
[2]; male, CD-1, EDTA-prepared mouse plasma, 1 μM, incubation out to 240 minutes
  half-life at 1 μM: > 4 h
[3]; following intraperitoneal or intravenous administration, previous studies
  circulating and brain concentrations of MRS2365: no detectable
[3]; mice, heparin as blood anticoagulant for plasma preparation
  clearance in vivo: rapidly cleared at a rate approximating cardiac output
